# Reference: US8048928B2, “Therapeutic agent for treating liver disease containing 2-amino-1,3-propanediol derivative as active ingredient, and method for treating liver disease” (Kyorin Pharmaceutical Co., Ltd., priority 2005, dated 2011)
# Counter-ions that a name gives are not always drawn.
# System: Con A-induced hepatitis model
# Assay: Con A-induced hepatitis model: liver-infiltrating cells counted with FACS Calibur
# Assay type: in vivo, Male BALB/c mice
# Protocol: Male BALB/c mice, aged 8 to 12 weeks, were purchased from Charles River, Japan. Concanavalin A (referred to as “Con A,” hereinafter) was dissolved in phosphate-buffered saline (PBS). 0.2 ml of this solution was intravenously administered to the animals to deliver 40 mg/kg of Con A. KRP-203 suspended in distilled water was orally administered at a dose of 0.1 mg/10 g body weight 24 hours before the administration of Con A. The animals were sacrificed 24 hours after the administration of Con A and the serum transaminase activity was measured. Also, the liver was perfused with 30 mL 0.1% EDTA-PBS to collect liver infiltrate (Eur. J. Immunol., 17: 37, 1987). To avoid contamination with lymphocytes in the periphery blood, the first 2.5 ml of the collected 0.1% EDTA-PBS was discarded. The collected cells were stained with anti-CD4 antibody, anti-CD8 antibody, anti-CD3 antibody, anti-CD45/B220 antibody, anti-CD11b antibody, anti-Ly-49C antibody and were counted with FACS Calibur.
# [1] = KRP-203 1 mg/kg oral 24 h before Con A 40 mg/kg i.v., 24 h after Con A
compound,measurement,setting,value
"NC(CO)(CO)CCc1ccc(Sc2cccc(OCc3ccccc3)c2)cc1Cl [KRP-203, 2-amino-2-[4-(3-benzyloxyphenylthio)-2-chlorophenyl]ethyl-1,3-propanediol hydrochloride]",Number of cells that infiltrated the liver: B220^+,[1],2.06 ± 0.21 ×10^5
same,Number of cells that infiltrated the liver: CD3^+ NK−,[1],2.29 ± 0.53 ×10^5
same,Number of cells that infiltrated the liver: CD4^+,[1],0.93 ± 0.33 ×10^5
same,Number of cells that infiltrated the liver: CD8^+,[1],2.53 ± 0.64 ×10^5
same,Number of cells that infiltrated the liver: CD11b^+,[1],8.47 ± 2.75 ×10^5
same,Number of cells that infiltrated the liver: NK^+ CD3−,[1],0.40 ± 0.24 ×10^5
same,Number of cells that infiltrated the liver: Total cells,[1],16.3 ± 3.5 ×10^5
same,Decrease of total number of infiltrated cells in the liver,group receiving KRP-203 (1 mg/kg) vs control,about 50%
